We go through 3 compounds from US7053055B2, “Compounds of unstable DP IV-inhibitors” (priority 1998, dated 2006).

Data set [1] can be described thus: Intramolecular cyclisation in aqueous buffer solution monitored by MALDI-TOF mass spectrometry. The conditions noted are these: aqueous buffer solution pH=7.6, MALDI-TOF MS. Format: physicochemical. The text has this: The products of that reaction are the respective pyrazine derivatives (FIG. 1).
Data set [2] in a line: Intramolecular cyclisation (stability) in 0.1 M HEPES buffer quantified by UV spectrometry. In kind it is physicochemical. To be noted: pH=7.6, 25° C.; for k (rate constant of intramolecular cyclisation): UV spectrometry. On the procedure: The cyclisation reaction was monitored over a period of 40 minutes. The formation of the double bond system of the pyrazine, which takes place during the intramolecular reaction, enables quantitative analysis of the cyclisation process by means of UV spectrometry (FIG. 4). The rate constants determined there from for the intramolecular cyclisation of unstable DP IV-inhibitors in 0.1 M HEPES buffer, pH=7.6, 25° C., are shown in Table 1.

Data set [3] has as its target T1, DP IV (Homo sapiens, UniProt P27487). The experiment in a line: DP IV-catalysed hydrolysis of H-Gly-Pro-pNA in the presence of inhibitor (progress curves). Format: biochemical. The protocol:
When the DP IV target enzyme is incubated with unstable inhibitors in the presence of a substrate, inhibition of the enzyme is observed initially; the inhibition subsides again as the experimental time progresses as a result of the intramolecular cyclisation of the inhibitor which takes place in parallel, since the concentration of the inhibitor in the reaction solution decreases as a result of the spontaneously occurring chemical reaction. Because of the time-dependent drop in the concentration of the inhibitor, the rate of the enzyme-catalysed hydrolysis of the substrate increases again as time progresses.
(§1) The active DP IV-inhibitor H-Val-Pro-CH2—(N^+C5H5) is released only as a result of the addition of the DP IV enzyme (used here by way of example also to release the DP IV-inhibitor) with removal of the N-terminal dipeptide H-Gly-Pro-OH. Accordingly, in the mass spectrum (FIG. 7) markedly more than 50% of the incubated compound according to the invention can be detected even after an incubation period of 60 minutes.

In data set [4] the target is T1, DP IV. Nature of the data set: Stability and DP IV-catalysed cleavage of the masked compound, MALDI-TOF mass spectrum of incubation batch. Format: biochemical. On the procedure: as §1

Bounds are passed on as bounds.

T1 sequence (P27487 whole entry): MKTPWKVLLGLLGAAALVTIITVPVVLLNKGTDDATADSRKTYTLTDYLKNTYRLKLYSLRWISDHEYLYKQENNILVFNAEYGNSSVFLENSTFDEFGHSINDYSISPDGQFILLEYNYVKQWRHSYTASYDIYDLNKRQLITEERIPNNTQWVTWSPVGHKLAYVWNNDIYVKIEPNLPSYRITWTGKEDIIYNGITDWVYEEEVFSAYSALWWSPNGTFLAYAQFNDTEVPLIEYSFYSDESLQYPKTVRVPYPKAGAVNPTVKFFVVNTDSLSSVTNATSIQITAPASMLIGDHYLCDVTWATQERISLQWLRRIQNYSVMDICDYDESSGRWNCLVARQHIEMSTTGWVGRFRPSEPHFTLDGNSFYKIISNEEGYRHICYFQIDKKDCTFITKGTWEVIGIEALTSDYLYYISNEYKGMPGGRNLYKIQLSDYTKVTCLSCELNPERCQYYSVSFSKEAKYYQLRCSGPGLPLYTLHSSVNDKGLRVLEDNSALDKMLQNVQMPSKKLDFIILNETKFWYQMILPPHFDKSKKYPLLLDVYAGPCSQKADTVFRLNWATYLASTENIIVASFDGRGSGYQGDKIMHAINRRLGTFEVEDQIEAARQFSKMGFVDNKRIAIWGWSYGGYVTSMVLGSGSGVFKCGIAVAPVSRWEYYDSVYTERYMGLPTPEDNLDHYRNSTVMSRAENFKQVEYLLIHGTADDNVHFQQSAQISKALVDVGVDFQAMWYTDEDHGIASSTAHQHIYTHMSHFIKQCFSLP

`CC(C)C(N)C(=O)N1CCCC1C(=O)C[n+]1ccccc1.[Cl-]` (stereo not drawn) [H-Val-Pro-CH2-(N^+C5H5), H-Val-Pro-CH2—(N^+C5H5)/C1]: the “Period within which breakdown to the cyclic pyrazine derivative is completed quantitatively” value in data set [1] was at most 60 min. In data set [2], this compound displayed a half-life of 13.3 min and a k (rate constant of intramolecular cyclisation) of 0.00087 min⁻¹.

`NC(Cc1ccccc1)C(=O)N1CCCC1C(=O)C[n+]1ccccc1.[Cl-]` (stereo not drawn) [H-Phe-Pro-CH2-(N^+C5H5), H-Phe-Pro-CH2—(N^+C5H5)/C1^−]: the “Period within which breakdown to the cyclic pyrazine derivative is completed quantitatively” value in data set [1] was at most 30 min. In data set [2], this compound returned a half-life of 9.6 min and a k (rate constant of intramolecular cyclisation) of 0.0012 min⁻¹.

As for `CC(C)C(NC(=O)C1CCCN1C(=O)CN)C(=O)N1CCCC1C(=O)C[n+]1ccccc1.[Cl-]` (stereo not drawn) [H-Gly-Pro-Val-Pro-CH2—(N+C5H5), H-Gly-Pro-Val-Pro-CH2—(N^+C5H5)/C1^−], at DP IV [3] (2.6×10^−5 mol/litre compound, FIG. 8), the “Duration of DP IV-inhibitory activity compared with the unstable DP IV-inhibitors” value was “markedly prolonged activity”. Further, the “Inhibition of the target enzyme DP IV” value at DP IV [3] (substrate H-Gly-Pro-pNA, 0.06 μg/ml DP IV, 0.1 M HEPES pH=7.6, 30° C.) is reported as “effective inhibition of the target enzyme”. Moreover, the “Incubated compound still detectable in mass spectrum” value at DP IV [4] (incubation with 0.06 μg/ml DP IV, 0.1 M HEPES pH=7.6, 30° C., after 60 minutes) was “more than 50%”. Also, on DP IV [4] (over a period of 24 hours), the “Stability in buffered aqueous solution in the absence of an enzyme” value is “stable”.

Broadly, the half-life is how long it takes for the measured level to halve. Read a high half-life as slow decline.
